# Experimental data reported in US10758607B2, “Respiratory syncytial virus having cleavage-resistant G protein and related materials and methods” (The Research Institute at Nationwide Children's Hospital, priority 2015, dated 2020).
# “Also recorded” adds a separate entry of the source. Where a SMILES comes first, the peptide text is derived from it.
# Key:
# [1] = test system: RSV G protein cleavage in Vero cells; assay: Cell-surface RSV G protein cleavage in rgRSV-infected cells treated with protease inhibitors (biotinylation, immunoblot with mAb L9); assay type: cell-based; conditions: 24 hpi
# Procedure: To elucidate the class of protease responsible for G protein cleavage in Vero cells, cells were treated with increasing concentrations of protease inhibitors after inoculating with recombinant green fluorescent protein expressing RSV (rgRSV). Cells were incubated with rgRSV for 2 h with tipping at 37° C. before replacing inoculum with fresh cell culture medium. Drugs were added at different times post infection. In each case, uninfected, no drug, and vehicle (at the highest concentration used) were included in all experiments as controls. In all experiments at 24 hpi, cell surface proteins were biotinylated, cells lysed and equivalent amounts of protein from each sample were mixed with streptavidin beads.
# Aprotinin, a serine protease inhibitor, leupeptin, a serine/cysteine protease inhibitor; or E-64, a cysteine protease inhibitor were added to the cell culture media (3.125 to 50 μg/ml) from 2-24 hpi. The most likely proteins to be incorporated into the virions are cell surface proteins, so the cell surfaced was biotinylated, proteins isolated from lysed cells with streptavidin beads, and immunobloted with L9, a mAb to the G protein, as a probe (FIG. 1A). In the untreated and vehicle treated samples most of the cell surface G protein was cleaved (˜55 kDa), leaving only a small portion of full length (˜90 kDa) G protein. […] Since both leupeptin and E64 block the activity of cysteine proteases, the protease responsible for cleavage of the G protein in Vero cells is a cysteine protease.
# To narrow the field of cysteine proteases, cells were treated at 6 hpi with a more specific cysteine protease inhibitor, ALLM (0.1 to 100 μM).
# RSV-infected HeLa and Vero cells were treated with a cathepsin B inhibitor, CA-074 (0.1 to 100 μM), or a cathepsin L inhibitor, cathepsin L inhibitor III (0.1 to 100 μM) 6 hpi.
# Cathepsin L is a protease present primarily in the interior of the lysosome and is optimally active at acidic pH. Vero cells expressing the G protein were treated with chloroquine to raise the pH of the lysosome. […] To generate FIG. 4C, cells were inoculated with RSV or mock inoculated. 6 hpi the cells were treated with increasing concentrations of chloroquine. 24 hpi cells were biotinylated and G protein assayed
# HeLa and Vero cells were rgRSV (MOI: 1) or mock inoculated. 2 hpi the inoculum was replaced with fresh complete medium, and 4 hpi cells the medium was changed again to complete medium with 2-fold dilutions of these protease inhibitors (Sigma-Aldrich, St. Louis, Mo.), dissolved in water: Aprotinin (3.125 to 50 μg/ml); Leupeptin (6.25 to 100 μg/ml); E-64 (6.25 to 100 μg/ml); or equal volumes of water in medium. In other experiments, cells were treated at 6 hpi with: 10-fold dilutions (0.1 to 100 μM) of: Cathepsin inhibitor I (Calbiochem); ALLM (Santa Cruz, Dallas, Tex.); Chloroquine diphosphate salt (Sigma Aldrich) or equivalent volumes of vehicle (water); CA-074 (Calbiochem); Cathepsin L inhibitor III (Calbiochem); or an equal volume of vehicle (DMSO) in medium.
# At 24 hpi cells were biotinylated with Ez-link Sulfo-NHS-LC-Biotin (Thermo Fisher). Cells were lysed with lysis buffer containing 150 mM NaCl, 1% Triton X-100, 50 mM Tris, 0.1% SDS, and 1× Halt protease cocktail inhibitor (Thermo Fisher). Proteins were quantified using BCA protein assay kit (Pierce, Waltham, Mass.), and equal amounts of protein were added to high capacity streptavidin agarose beads (Thermo Fisher). The mixtures were rotated for 1 h at 4° C., the beads were pelleted and washed with lysis buffer (without protease cocktail inhibitor), NuPage LDS sample buffer was added, and boiled for 5 min, separated by NuPAGE Novex 4-12% bis-tris protein gels and transferred to nitrocellulose in an iBlot transfer stack, using the iBlot transferring system (Life Technologies) for immunoblot analysis. […]
# [2] = test system: RSV G protein cleavage in Vero cells; assay: Cleavage of mutant G proteins transiently expressed in Vero cells (immunoblot); assay type: cell-based; conditions: for resistance to cleavage of alanine substitution G protein mutants: 24 hours post-transfection; for cleavage of G protein deletion mutants: 24 h post-transfection, vs wt G protein
# Procedure: The G gene in the region of amino acid 210 was modified by deleting stretches of amino acids in this region (200-211, 204-213, 206-215, 208-217, or 209-213). […] Most of the mutants almost completely ablate cleavage. They all share amino acids 208-211. However, A206-210 and A206-215, both of which bring together amino acids that can also serve as a cathepsin L cleavage site. For FIG. 6B, the mutated G protein genes were transiently expressed in Vero cells. 24 h post-transfection cells were harvested, lysed and proteins were separated by SDS-PAGE, blotted and probed with mAb to the G protein.
# To identify which amino acids are important for cleavage, individual amino acids in and around this region were changed to alanine. These mutant G proteins were transiently expressed in Vero cells and assessed by immunoblot (FIG. 6C). For FIG. 6C, the mutated G protein genes were transiently expressed in Vero cells. 24 hours post-transfection cells were harvested, lysed and proteins were separated by SDS-PAGE, blotted and probed with mAb to the G protein.
# The strain A2 G protein plasmid was mutagenized using synthetic double strand gBlock DNA (Integrated DNA Technologies). Van91I (Thermo Fisher) and Xho I (New England Biolabs) were used to digest plasmid and gBlock. Doubly-digested plasmid was isolated by agarose gel electrophoresis. Digested gBlock and eluted plasmid DNAs were ligated with T4 DNA ligase (Promega, Madison, Wis.), and transformed into One Shot MachI-T1 chemically competent bacteria (Life Technologies). Plasmids were extracted using HiSpeed or Plasmid Plus Maxi kits (Qiagen).
# Wild type G or frG proteins were expressed in HeLa or Vero cells following plasmid transfection with FuGene HD (Promega) or Lipofectamine LTX (Life Technologies), respectively, in medium containing 2% FBS. In frG experiments, medium was collected and concentrated using Ultracel-10 K centrifugal filters (EMD Millipore, Billerica, Mass.). For other transfection experiments, Vero cells were transfected using Lipofectamine 3000 (Life Technologies) in medium containing 10% FBS. For all transfection experiments, cells were lysed and protein quantified by BCA assay. Equivalent HeLa or Vero cell lysate protein and equivalent volumes of concentrated proteins from the medium were analyzed by immunoblotting.
# [3] = rgRSV-infected Vero cells, 6.24 to 100 μg/ml
compound,measurement,setting,value
CC(=O)N[C@@H](CC(C)C)C(=O)N[C@@H](CC(C)C)C(=O)N[C@H](C=O)CCCNC(=N)N [leupeptin],G protein cleavage (cell surface G protein),[1]; [3],"did, in a dose dependent manner"
same,G protein cleavage (cell surface G protein),"[1]; rgRSV-infected Vero cells, 6.24 to 100 μg/ml, listed as Leupeptin",prevention of cleavage
D214: RSV strain A2 G protein with alanine substitution at D214,resistance to cleavage of alanine substitution G protein mutants,[2],partially to nearly completely resistant to cleavage
206-215: RSV G protein with amino acids 206-215 deleted,cleavage of G protein deletion mutants,[2],cleaved less efficiently than the wt G protein
same,cleavage of G protein deletion mutants,[2]; listed as Δ206-215,inhibit but do not abolished protein cleavage
Aprotinin,G protein cleavage (cell surface G protein),"[1]; rgRSV-infected Vero cells, 3.125 to 50 μg/ml",did not prevent G protein cleavage
"CC(C)C[C@H](NC(=O)[C@H]1O[C@@H]1C(=O)O)C(=O)NCCCCN=C(N)N [E64, E-64]",G protein cleavage (cell surface G protein),[1]; [3],"did, in a dose dependent manner"
same,G protein cleavage (cell surface G protein),"[1]; rgRSV-infected Vero cells, 6.24 to 100 μg/ml, listed as E-64",prevention of cleavage
Δ206-210,cleavage of G protein deletion mutants,[2],inhibit but do not abolished protein cleavage
CCCNC(=O)[C@H]1O[C@@H]1C(=O)N[C@H](C(=O)N1CCC[C@H]1C(=O)O)[C@@H](C)CC [CA-074],G protein cleavage (cell surface G protein),"[1]; RSV-infected HeLa and Vero cells, 0.1 to 100 μM at 6 hpi",RSV G protein cleavage in the presence; also recorded: did not change this pattern
K212: RSV strain A2 G protein with alanine substitution at K212,resistance to cleavage of alanine substitution G protein mutants,[2],partially to nearly completely resistant to cleavage
CCN(CC)CCCC(C)Nc1ccnc2cc(Cl)ccc12 (stereo not drawn) [chloroquine],G protein on the cell surface (cleaved vs full length),"[1]; Vero cells, increasing concentrations of chloroquine from 6 hpi",primarily full length G protein; also recorded: decreased cleavage
K209: RSV strain A2 G protein with alanine substitution at K209,efficiency at inhibiting cleavage (rank among alanine substitutions),[2],second most efficient
same,resistance to cleavage of alanine substitution G protein mutants,[2],partially to nearly completely resistant to cleavage
CSCC[C@@H](C=O)NC(=O)[C@H](CC(C)C)NC(=O)[C@H](CC(C)C)NC(C)=O [ALLM] (Ac-Leu-Leu-Met-aldehyde),G protein cleavage (cell surface G protein),"[1]; rgRSV-infected Vero cells, treated at 6 hpi, 0.1 to 100 μM",prevention of cleavage; also recorded: inhibited G protein cleavage
